Common to all, as to assay type: biochemical
Experiment [1] has as its target KAT7+JADE1+EAF6+ING5 4 protein complex (Homo sapiens (Human), UniProt O95251). In words: KAT7 JADE1 assay (SAMDI-MS acetylation of H3 1-21 peptide). Particulars: Morrison equation fit; replicate number in parentheses; read-out: KAT7 JADE1 Ki (nM) (replicate number).
The target in experiment [2] is KAT8 Full length enzyme (Homo sapiens (Human), UniProt Q9H7Z6). In words: KAT8 assay (SAMDI-MS acetylation of H3 1-21 peptide). Particulars: Morrison equation fit; replicate number in parentheses; read-out: KAT8 Ki (nM) (replicate number).
Chain of KAT8 Full length enzyme (Q9H7Z6 whole entry): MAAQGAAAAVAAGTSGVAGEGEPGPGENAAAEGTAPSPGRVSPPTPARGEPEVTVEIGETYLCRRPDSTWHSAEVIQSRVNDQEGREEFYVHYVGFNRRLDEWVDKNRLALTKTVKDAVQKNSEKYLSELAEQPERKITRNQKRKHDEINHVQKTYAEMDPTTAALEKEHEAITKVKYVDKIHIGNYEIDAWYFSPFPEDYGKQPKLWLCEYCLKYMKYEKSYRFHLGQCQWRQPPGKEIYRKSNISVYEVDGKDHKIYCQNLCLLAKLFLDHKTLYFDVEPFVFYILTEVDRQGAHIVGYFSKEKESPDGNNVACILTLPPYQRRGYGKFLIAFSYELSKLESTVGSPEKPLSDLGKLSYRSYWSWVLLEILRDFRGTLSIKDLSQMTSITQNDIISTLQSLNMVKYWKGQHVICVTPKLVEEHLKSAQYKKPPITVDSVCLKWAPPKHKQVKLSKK
Experiment [3] has as its target KAT5 Full length enzyme (Homo sapiens (Human), UniProt Q92993). In words: KAT5 assay (SAMDI-MS acetylation of H4 1-21 peptide). The conditions noted are these: Morrison equation fit; replicate number in parentheses; read-out: KAT5 Ki (nM) (replicate number).
In experiment [4] the target is KAT6A Full length enzyme (Homo sapiens (Human), UniProt Q92794). In words: KAT6A assay (SAMDI-MS acetylation of H3 1-21 peptide). Particulars: Morrison equation fit; replicate number in parentheses; read-out: KAT6A Ki (nM) (replicate number).
Chain of KAT6A Full length enzyme (Q92794 other isoform, or with tags, fused parts or gaps): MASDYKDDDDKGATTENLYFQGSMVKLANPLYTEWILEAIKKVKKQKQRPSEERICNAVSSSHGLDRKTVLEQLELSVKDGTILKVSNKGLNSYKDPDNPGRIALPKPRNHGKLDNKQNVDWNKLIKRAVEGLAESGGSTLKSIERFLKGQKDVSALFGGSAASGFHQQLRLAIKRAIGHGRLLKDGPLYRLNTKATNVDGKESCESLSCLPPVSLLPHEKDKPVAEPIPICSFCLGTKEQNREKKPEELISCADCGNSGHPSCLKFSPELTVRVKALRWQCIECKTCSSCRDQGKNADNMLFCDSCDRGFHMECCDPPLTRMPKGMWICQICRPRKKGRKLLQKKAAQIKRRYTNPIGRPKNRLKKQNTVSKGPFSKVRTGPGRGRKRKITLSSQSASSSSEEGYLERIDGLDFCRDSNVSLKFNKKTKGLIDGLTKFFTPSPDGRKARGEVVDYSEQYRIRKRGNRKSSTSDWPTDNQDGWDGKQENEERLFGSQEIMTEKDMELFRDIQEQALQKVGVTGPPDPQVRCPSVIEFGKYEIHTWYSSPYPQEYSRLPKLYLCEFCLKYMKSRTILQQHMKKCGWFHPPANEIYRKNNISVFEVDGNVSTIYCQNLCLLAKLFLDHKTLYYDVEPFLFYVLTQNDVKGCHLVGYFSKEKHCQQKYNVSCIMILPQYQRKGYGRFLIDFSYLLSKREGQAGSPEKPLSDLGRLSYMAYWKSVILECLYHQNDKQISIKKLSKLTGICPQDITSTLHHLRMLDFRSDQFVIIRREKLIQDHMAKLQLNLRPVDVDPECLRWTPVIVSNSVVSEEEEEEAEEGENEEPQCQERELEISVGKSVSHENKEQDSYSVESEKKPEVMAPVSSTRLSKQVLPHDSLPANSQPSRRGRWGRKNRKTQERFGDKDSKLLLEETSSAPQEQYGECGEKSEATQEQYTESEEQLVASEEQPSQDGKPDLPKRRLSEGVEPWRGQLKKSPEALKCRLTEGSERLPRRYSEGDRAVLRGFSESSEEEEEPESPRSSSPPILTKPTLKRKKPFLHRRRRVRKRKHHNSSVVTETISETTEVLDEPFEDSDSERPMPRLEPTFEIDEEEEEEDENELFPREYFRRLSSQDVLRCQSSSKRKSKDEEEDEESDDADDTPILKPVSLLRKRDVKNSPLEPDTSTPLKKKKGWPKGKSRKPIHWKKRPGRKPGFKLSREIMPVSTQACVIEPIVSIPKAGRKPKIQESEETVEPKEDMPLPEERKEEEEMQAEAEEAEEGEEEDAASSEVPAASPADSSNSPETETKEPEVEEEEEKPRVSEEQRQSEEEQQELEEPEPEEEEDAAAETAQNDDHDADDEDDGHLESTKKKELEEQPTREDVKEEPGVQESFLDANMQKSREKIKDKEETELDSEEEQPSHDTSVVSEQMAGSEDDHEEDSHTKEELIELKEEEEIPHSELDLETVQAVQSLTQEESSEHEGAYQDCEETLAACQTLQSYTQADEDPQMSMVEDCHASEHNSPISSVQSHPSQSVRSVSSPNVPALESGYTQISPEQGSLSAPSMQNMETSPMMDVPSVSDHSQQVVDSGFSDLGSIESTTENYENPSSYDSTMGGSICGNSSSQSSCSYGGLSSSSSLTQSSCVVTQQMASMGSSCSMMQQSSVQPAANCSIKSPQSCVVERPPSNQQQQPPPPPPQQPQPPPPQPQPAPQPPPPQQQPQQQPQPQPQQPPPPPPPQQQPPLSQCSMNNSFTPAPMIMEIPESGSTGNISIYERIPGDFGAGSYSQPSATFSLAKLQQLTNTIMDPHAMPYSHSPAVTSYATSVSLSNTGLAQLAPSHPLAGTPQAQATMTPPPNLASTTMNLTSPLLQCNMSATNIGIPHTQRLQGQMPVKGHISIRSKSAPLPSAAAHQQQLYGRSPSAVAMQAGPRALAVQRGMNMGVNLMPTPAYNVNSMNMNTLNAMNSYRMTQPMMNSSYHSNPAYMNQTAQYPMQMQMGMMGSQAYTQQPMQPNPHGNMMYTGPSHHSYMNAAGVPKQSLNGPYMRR

In US20250122183A1 (Pfizer Inc., priority 2023, published 2025) one finds Ki data, which are given here for 22 compounds.

Chain of KAT5 Full length enzyme (Q92993 whole entry): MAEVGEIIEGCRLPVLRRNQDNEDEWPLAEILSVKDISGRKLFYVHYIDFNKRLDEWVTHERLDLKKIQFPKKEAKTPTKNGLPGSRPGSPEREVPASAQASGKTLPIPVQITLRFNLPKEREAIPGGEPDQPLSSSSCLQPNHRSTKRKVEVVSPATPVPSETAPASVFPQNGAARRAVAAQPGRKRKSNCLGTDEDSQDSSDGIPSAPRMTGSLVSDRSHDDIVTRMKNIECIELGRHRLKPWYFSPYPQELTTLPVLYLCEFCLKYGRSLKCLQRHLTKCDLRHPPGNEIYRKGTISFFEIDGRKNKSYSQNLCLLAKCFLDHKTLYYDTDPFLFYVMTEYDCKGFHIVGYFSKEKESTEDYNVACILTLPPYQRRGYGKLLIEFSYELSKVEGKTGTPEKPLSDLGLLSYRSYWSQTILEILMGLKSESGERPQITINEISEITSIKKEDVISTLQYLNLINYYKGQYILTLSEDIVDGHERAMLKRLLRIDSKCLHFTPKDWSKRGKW

Usually Ki stands for the dissociation constant of the complex between target and ligand, obtained from inhibition or displacement. Take `CCc1cnc(Nc2cc3onc(NS(=O)(=O)c4c(OC)cccc4OC)c3cc2OC)nc1` [Example 107, N-{6-[(5-ethylpyrimidin-2-yl)amino]-5-methoxy-1,2-benzoxazol-3-yl}-2,6-dimethoxybenzene-1-sulfonamide]: the inhibition constant (Ki) in experiment [1] is 6540 nM; in experiment [2], above 13000 nM; in experiment [3], 10400 nM; in experiment [4] it was 132 nM.

On to `COc1cc2c(NS(=O)(=O)c3c(OC)cccc3OC)noc2cc1Nc1nc(C)cc(C)n1` [Example 108, N-{6-[(4,6-dimethylpyrimidin-2-yl)amino]-5-methoxy-1,2-benzoxazol-3-yl}-2,6-dimethoxybenzene-1-sulfonamide], for which the Ki is 3420 nM in experiment [1], above 13000 nM in experiment [2], 45000 nM in experiment [3] and 202 nM in experiment [4].

Turning to `COc1cc2c(NS(=O)(=O)c3c(OC)cccc3OC)noc2cc1Nc1ncc(C)cn1` [Example 110, 2,6-dimethoxy-N-{5-methoxy-6-[(5-methylpyrimidin-2-yl)amino]-1,2-benzoxazol-3-yl}benzene-1-sulfonamide], the inhibition constant (Ki) in experiment [1] is 2820 nM; in experiment [2] it was above 13000 nM; in experiment [3], 6610 nM; in experiment [4] it was 44.1 nM.

With `COc1cc2c(NS(=O)(=O)c3c(OC)cccc3OC)noc2cc1Nc1ccccn1` [Example 111, 2,6-dimethoxy-N-{5-methoxy-6-[(pyridin-2-yl)amino]-1,2-benzoxazol-3-yl}benzene-1-sulfonamide], the Ki in experiment [1] is 400 nM; in experiment [2], above 13000 nM; in experiment [3], 1130 nM; in experiment [4] it was 0.8 nM.

As to `COc1cc2c(NS(=O)(=O)c3c(OC)cccc3OC)noc2cc1Nc1cc2n(n1)CCC21CC1` [Example 112, N-{6-[(5′,6′-dihydrospiro[cyclopropane-1,4′-pyrrolo[1,2-b]pyrazol]-2′-yl)amino]-5-methoxy-1,2-benzoxazol-3-yl}-2,6-dimethoxybenzene-1-sulfonamide], the Ki in experiment [1] is 238 nM; in experiment [2], above 13000 nM; in experiment [3] it was 689 nM; in experiment [4], 17.6 nM.

In the case of `CCn1nc(Nc2cc3onc(NS(=O)(=O)c4c(OC)cccc4OC)c3cc2OC)cc1C1CC1` [Example 113, N-{6-[(5-cyclopropyl-1-ethyl-1H-pyrazol-3-yl)amino]-5-methoxy-1,2-benzoxazol-3-yl}-2,6-dimethoxybenzene-1-sulfonamide], the Ki in experiment [1] is 9090 nM; in experiment [2], above 13000 nM; in experiment [3] it was 50000 nM; in experiment [4] it was 348 nM.

For `COc1cc2c(NS(=O)(=O)c3c(OC)cccc3OC)noc2cc1Nc1cc(C(F)F)n[nH]1` [Example 115, N-(6-{[3-(difluoromethyl)-1H-pyrazol-5-yl]amino}-5-methoxy-1,2-benzoxazol-3-yl)-2,6-dimethoxybenzene-1-sulfonamide], the Ki in experiment [1] was determined as 32.2 nM; in experiment [2] it was 8920 nM; in experiment [3], 101 nM; in experiment [4], 0.1 nM.

In the case of `COc1cc2c(NS(=O)(=O)c3c(OC)cccc3OC)noc2cc1Nc1cc(C(C)(C)C)n[nH]1` [Example 116, N-{6-[(3-tert-butyl-1H-pyrazol-5-yl)amino]-5-methoxy-1,2-benzoxazol-3-yl}-2,6-dimethoxybenzene-1-sulfonamide], the inhibitory constant (Ki) in experiment [1] came to 98 nM; in experiment [2], 7900 nM; in experiment [3], 546 nM; in experiment [4], 11.8 nM.

As for `COc1cc2c(NS(=O)(=O)c3c(OC)cccc3OC)noc2cc1Nc1cc(C2CC(F)(F)C2)[nH]n1` [Example 117, N-(6-{[5-(3,3-difluorocyclobutyl)-1H-pyrazol-3-yl]amino}-5-methoxy-1,2-benzoxazol-3-yl)-2,6-dimethoxybenzene-1-sulfonamide], the inhibition constant Ki is 25.1 nM in experiment [1], 10000 nM in experiment [2], 360 nM in experiment [3] and 5.3 nM in experiment [4].

For `COc1cc2c(NS(=O)(=O)c3c(OC)cc(-c4ccccn4)cc3OC)noc2cc1Nc1cc(C2CC2)n[nH]1` [Example 118, N-{6-[(3-cyclopropyl-1H-pyrazol-5-yl)amino]-5-methoxy-1,2-benzoxazol-3-yl}-2,6-dimethoxy-4-(pyridin-2-yl)benzene-1-sulfonamide], the Ki in experiment [1] was determined as 8.1 nM; in experiment [2] it was 731 nM; in experiment [3] it was 66.1 nM; in experiment [4], 0.9 nM.

As for `COc1cc2c(NS(=O)(=O)c3c(OC)cc(-c4ccccc4)cc3OC)noc2cc1Nc1cc(C2CC2)n[nH]1` [Example 119, N-{6-[(3-cyclopropyl-1H-pyrazol-5-yl)amino]-5-methoxy-1,2-benzoxazol-3-yl}-3,5-dimethoxy[1,1′-biphenyl]-4-sulfonamide], the Ki amounted to 3.6 nM in experiment [1], 156 nM in experiment [2], 19.4 nM in experiment [3] and 0.2 nM in experiment [4].

Turning to `COc1cc2c(NS(=O)(=O)c3c(OC)cc(-c4ccncc4)cc3OC)noc2cc1Nc1cc(C2CC2)n[nH]1` [Example 120, N-{6-[(3-cyclopropyl-1H-pyrazol-5-yl)amino]-5-methoxy-1,2-benzoxazol-3-yl}-2,6-dimethoxy-4-(pyridin-4-yl)benzene-1-sulfonamide], the Ki in experiment [1] was 10.8 nM; in experiment [2] it was 640 nM; in experiment [3], 236 nM; in experiment [4], 0.8 nM.

With `COc1cc2c(NS(=O)(=O)c3c(OC)cc(-c4cnn(C)c4)cc3OC)noc2cc1Nc1cc(C2CC2)n[nH]1` [Example 123, N-{6-[(3-cyclopropyl-1H-pyrazol-5-yl)amino]-5-methoxy-1,2-benzoxazol-3-yl}-2,6-dimethoxy-4-(1-methyl-1H-pyrazol-4-yl)benzene-1-sulfonamide], the Ki in experiment [1] stood at 10.4 nM; in experiment [2] it was 189 nM; in experiment [3], 246 nM; in experiment [4] it was 0.8 nM.

Take `CCc1cc(Nc2cc3onc(NS(=O)(=O)c4ccc(C(F)(F)F)cc4Cl)c3cc2OC)n[nH]1` [Example 124, 2-chloro-N-{6-[(5-ethyl-1H-pyrazol-3-yl)amino]-5-methoxy-1,2-benzoxazol-3-yl}-4-(trifluoromethyl)benzene-1-sulfonamide]: the Ki in experiment [1] was found to be 47.9 nM; in experiment [2], 8220 nM; in experiment [3] it was 4570 nM; in experiment [4], 51.3 nM.

For `CCc1cc(Nc2cc3onc(NS(=O)(=O)c4cccc(Oc5ccccc5C)c4)c3cc2OC)n[nH]1` [Example 125, N-{6-[(5-ethyl-1 H-pyrazol-3-yl)amino]-5-methoxy-1,2-benzoxazol-3-yl}-3-(2-methylphenoxy)benzene-1-sulfonamide], the Ki in experiment [1] was 180 nM; in experiment [2], above 13000 nM; in experiment [3], 5090 nM; in experiment [4], 48.6 nM.

With `CCc1cc(Nc2cc3onc(NS(=O)(=O)c4cccc(Oc5ccc(C)cc5)c4)c3cc2OC)n[nH]1` [Example 126, N-{6-[(5-ethyl-1 H-pyrazol-3-yl)amino]-5-methoxy-1,2-benzoxazol-3-yl}-3-(4-methylphenoxy)benzene-1-sulfonamide], the Ki in experiment [1] was 237 nM; in experiment [2], above 13000 nM; in experiment [3], 5040 nM; in experiment [4], 52.1 nM.

`CCCc1ccc(S(=O)(=O)Nc2noc3cc(Nc4cc(CC)[nH]n4)c(OC)cc23)cc1` [Example 127, N-{6-[(5-ethyl-1 H-pyrazol-3-yl)amino]-5-methoxy-1,2-benzoxazol-3-yl}-4-propylbenzene-1-sulfonamide]: the Ki in experiment [1] is 175 nM; in experiment [2], above 13000 nM; in experiment [3], 3940 nM; in experiment [4], 32.8 nM.

Turning to `CCc1cc(Nc2cc3onc(NS(=O)(=O)c4cccc(Oc5ccc(F)cc5)c4)c3cc2OC)n[nH]1` [Example 128, N-{6-[(5-ethyl-1 H-pyrazol-3-yl)amino]-5-methoxy-1,2-benzoxazol-3-yl}-3-(4-fluorophenoxy)benzene-1-sulfonamide], the Ki in experiment [1] was 212 nM; in experiment [2], above 13000 nM; in experiment [3], 7830 nM; in experiment [4], 38.1 nM.

On to `CCc1cc(Nc2cc3onc(NS(=O)(=O)c4ccc5c(c4)OCCO5)c3cc2OC)n[nH]1` [Example 129, N-{6-[(5-ethyl-1 H-pyrazol-3-yl)amino]-5-methoxy-1,2-benzoxazol-3-yl}-2,3-dihydro-1,4-benzodioxine-6-sulfonamide], for which the Ki is 244 nM in experiment [1], above 13000 nM in experiment [2], 5630 nM in experiment [3] and 56.8 nM in experiment [4].

As to `CCc1cc(Nc2cc3onc(NS(=O)(=O)c4ccc(-c5ccccc5)cc4)c3cc2OC)n[nH]1` [Example 130, N-{6-[(5-ethyl-1 H-pyrazol-3-yl)amino]-5-methoxy-1,2-benzoxazol-3-yl}[1,1′-biphenyl]-4-sulfonamide], the Ki in experiment [1] was 85.2 nM; in experiment [2], 7520 nM; in experiment [3], 2010 nM; in experiment [4] it was 13 nM.

Take `CCc1cc(Nc2cc3onc(NS(=O)(=O)c4ccc(Oc5ccccc5)cc4)c3cc2OC)n[nH]1` [Example 132, N-{6-[(5-ethyl-1 H-pyrazol-3-yl)amino]-5-methoxy-1,2-benzoxazol-3-yl}-4-phenoxybenzene-1-sulfonamide]: the Ki in experiment [1] was 410 nM; in experiment [2], above 13000 nM; in experiment [3] it was 5520 nM; in experiment [4], 82.7 nM.

As for `CCc1cc(Nc2cc3onc(NS(=O)(=O)c4ccc(OC)c(F)c4)c3cc2OC)n[nH]1` [Example 133, N-{6-[(5-ethyl-1 H-pyrazol-3-yl)amino]-5-methoxy-1,2-benzoxazol-3-yl}-3-fluoro-4-methoxybenzene-1-sulfonamide], the Ki in experiment [1] is 321 nM; in experiment [2] it was above 13000 nM; in experiment [3] it was 6210 nM; in experiment [4], 78.7 nM.
